Assay [1] has as its target T1, Serine protease 1 (Bos taurus, UniProt P00760).
T1 sequence (P00760 whole entry): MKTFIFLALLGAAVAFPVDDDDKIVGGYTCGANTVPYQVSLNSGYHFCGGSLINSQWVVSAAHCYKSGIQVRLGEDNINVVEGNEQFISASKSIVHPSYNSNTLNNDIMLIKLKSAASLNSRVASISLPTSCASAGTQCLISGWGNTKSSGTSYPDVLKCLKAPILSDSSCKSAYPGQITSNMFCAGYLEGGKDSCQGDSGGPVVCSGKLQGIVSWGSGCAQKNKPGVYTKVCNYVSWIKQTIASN
As to the kind of experiment: Binding affinity against bovine trypsin; NA=Not active at 1 uM.

Assay [2] deals with T1, Serine protease 1. As to the kind of experiment: Binding affinity against bovine trypsin.
Assay [3] concerns the target T2, Prothrombin (Homo sapiens, UniProt P00734). Kind of assay: Inhibitory concentration against human alpha thrombin.
The next assay is filed under the species Homo sapiens. Kind of assay: Inhibitory concentration against gel filtered platelet aggregation induced by alpha thrombin. The class given is functional.
The target in assay [4] is T2, Prothrombin. As to the kind of experiment: Binding affinity determined against human alpha thrombin.
Assay [5] relates to Cavia porcellus. As to the kind of experiment: Percent change in blood pressure in guinea pig at 3 mg/kg dose.
Assay [6] relates to Cavia porcellus. As to the kind of experiment: Percent change in blood pressure in guinea pig at 10 mg/kg dose.
In assay [7] the target is T2, Prothrombin. Kind of assay: Inhibition constant against human alpha thrombin.
The target of assay [8] is T1, Serine protease 1. As to the kind of experiment: Inhibitory concentration against bovine trypsin.
The target in assay [9] is T2, Prothrombin. Kind of assay: Binding affinity against human alpha thrombin; […].
Assay [10] has as its target T2, Prothrombin. Kind of assay: Inhibitory concentration against human alpha thrombin; NA=Not active at 1 uM.
Assay [11] deals with T2, Prothrombin. As to the kind of experiment: Inhibitory concentration against human alpha thrombin; NT=Not active at 300 uM.
The target in assay [12] is T1, Serine protease 1. Kind of assay: Binding affinity against bovine trypsin; NT=Not active at 100 uM.
For assay [13], the target named is T2, Prothrombin. Kind of assay: Inhibitory concentration against human alpha thrombin; NA = Not active at 1 uM.
Assay [14] deals with Cavia porcellus. Kind of assay: Percent change in blood pressure in guinea pig at 1 mg/kg dose.
The next assay deals with Canis familiaris. Kind of assay: In vivo effective intravenous dose for that reduces thrombus weight accumulation on a silk fiber by 50% was determined in Dog arteriovenous shunt model. In kind it is functional. To be noted: Canis lupus familiaris.
The species entered for assay [15] is Cavia porcellus. As to the kind of experiment: animal or person. To be noted: Blood, iv.
Description: In vivo effective intravenous dose for eliciting a 25% decrease in blood pressure in anesthetized Guinea pig
For another assay, the system named is Oryctolagus cuniculus. Kind of assay: In vivo effective intravenous dose for that was determined in Rabbit deep vein thrombosis model.
The target in assay [16] is T1, Serine protease 1. Kind of assay: Inhibitory concentration against bovine trypsin; ND=Not determined.
For assay [17], the target named is T2, Prothrombin. As to the kind of experiment: Binding affinity against human alpha thrombin; SB = Slow-binding.

SMILES strings stand for the structures. pIC50, pKi: −log10 of the molar value. Where only a bound is given, the exact number is not on record here.

The term pKi denotes the negative decadic logarithm of the Ki, by convention in mol/L. A lower pKi goes with a high Ki. In general, pIC50 refers to the negative decadic logarithm of the IC50, by convention in mol/L. Read a high pIC50 as a small IC50. As a reminder, the ED50 is the dose that gives a 50% effect, or the effect in half of the subjects.

In the case of `CCCC[C@H](NC(=O)[C@@H]1CCCN1C(=O)[C@@H](Cc1ccccc1)NC)C(=O)c1nc2ccccc2s1`, the Ki result at Serine protease 1 [1] is “Not Active”.
For `CN[C@H](Cc1ccccc1)C(=O)N1CCC[C@H]1C(=O)NC(C(=O)c1nc2ccccc2s1)C1CCC(N)CC1` (stereo not given in full), the pKi is 6.48 on Serine protease 1 [2] and 6.96 on Prothrombin [4]. For the same compound, the pIC50 at Prothrombin [3] is 5.72; in the assay filed under Homo sapiens, 7.12. In addition, in the assay on Cavia porcellus [5], the “Delta BP” value is given as -25%.
On to `CN[C@H](Cc1ccccc1)C(=O)N1CCC[C@H]1C(=O)NC(CCCN=C(N)N)C(=O)c1nc2c(s1)CCCC2` (stereo not given in full), for which the pKi at Serine protease 1 [2] is 8.36; at Prothrombin [4] it was 8.47. In addition, the negative logarithm of the IC50 (pIC50) against Prothrombin [3] was 7.10; in the assay filed under Homo sapiens, 7.66. In addition, the “Delta BP” value with Cavia porcellus [6] was -70%.
For `CN[C@H](Cc1ccccc1)C(=O)N[C@H](C(=O)NC(CCCN=C(N)N)C(=O)c1nc2ccccc2s1)C(C)C` (stereo not given in full), the pKi on Serine protease 1 [2] is 8.82; at Prothrombin [7] it was 7.68; at Prothrombin [4], 7.68. Besides, the negative logarithm of the IC50 (pIC50) at Prothrombin [3] was 6.36; in the assay listed under Homo sapiens it was 6.74. The “Delta BP” value in the assay with Cavia porcellus [5] is recorded as -47%.
For `N=C(N)NCCCC(NC(=O)[C@@H]1CCCN1C(=O)N[C@H](C=O)Cc1ccccc1)C(=O)c1nc2ccccc2s1` (stereo not given in full), the pIC50 is 8.24 against Serine protease 1 [8] and 4.77 against Prothrombin [3].
Turning to `N=C(N)NCCC[C@H](NC(=O)CN1CCCC[C@H](NS(=O)(=O)Cc2ccccc2)C1=O)C(=O)c1nc2ccccc2s1`, the values for the pKi on Serine protease 1 [2] and at Prothrombin [4] were 8.03 and 7.80, respectively. Also, the values for the negative-log IC50 (pIC50) against Prothrombin [3] and in the assay listed under Homo sapiens were 6.57 and 7.33, respectively. Further, in the assay on Cavia porcellus [6], the “Delta BP” value is -39%.
As to `CN[C@@H](C(=O)N1CCC[C@H]1C(=O)NC(CCCN=C(N)N)C(=O)c1nc2ccccc2s1)C(c1ccccc1)c1ccccc1` (stereo not given in full), the Ki result at Prothrombin [9] is given as “Slow Binding”. Also, the negative-log IC50 (pIC50) is 6.45 against Serine protease 1 [8], 8.35 against Prothrombin [3] and 7.37 in the assay listed under Homo sapiens. In addition, the “Delta BP” value with Cavia porcellus [5] is -54%.
With `CN[C@H](Cc1ccccc1)C(=O)N1CCC[C@H]1C(=O)N[C@@H](Cc1ccccc1)C(=O)c1nc2ccccc2s1`, the pKi is 4.92 on Serine protease 1 [2] and 5.15 at Prothrombin [4]. Besides, on Prothrombin [10], the IC50 result was “Not Active”.
Turning to `N=C(N)NCCCCC(=O)c1nc2ccccc2s1`, at Prothrombin [11], the IC50 entry is listed as “Not Active”. Moreover, the Ki result on Serine protease 1 [12] is “Not Active”.
For `CNCCCC[C@@H](NC(=O)[C@@H]1CCCN1C(=O)[C@@H](Cc1ccccc1)NC)C(=O)c1nc2ccccc2s1`, the negative logarithm of the Ki (pKi) at Serine protease 1 [2] is 6.00; at Prothrombin [4], 5.46. Moreover, the IC50 entry against Prothrombin [10] is recorded as “Not Active”.
Consider `N=C(N)NCCCC(NC(=O)[C@@H]1CCCN1C(=O)CC(c1ccccc1)c1ccccc1)C(=O)c1nc2ccccc2s1` (stereo not given in full), for which the negative logarithm of the Ki (pKi) is 7.66 at Serine protease 1 [2], 8.51 at Prothrombin [7] and 8.96 on Prothrombin [4]. Moreover, the negative logarithm of the IC50 (pIC50) was 7.96 on Prothrombin [3] and 7.54 in the assay listed under Homo sapiens. In the assay on Cavia porcellus [5], the “Delta BP” value is -25%.
In turn, `CN[C@H](Cc1ccccc1)C(=O)N1CCC[C@H]1C(=O)NC(CCCN=C(N)N)C(=O)c1nc2ccc(C(N)=O)cc2s1` (stereo not given in full) had a negative-log Ki (pKi) on Serine protease 1 [2] of 9.52. Besides, the Ki entry at Prothrombin [9] is listed as “Slow Binding”.
For the compound `CNCCCC[C@H](NC(=O)[C@@H]1CCCN1C(=O)[C@@H](Cc1ccccc1)NC)C(=O)c1nc2ccccc2s1`, the values for the pKi at Serine protease 1 [2] and at Prothrombin [4] were 5.92 and 5.43, respectively. Moreover, the IC50 entry against Prothrombin [13] is recorded as “Not Active”. Besides, in the assay filed under Homo sapiens, the pIC50 was 5.28. Besides, the “Delta BP” value with Cavia porcellus [14] is given as -16%.
For the compound `CN[C@H](Cc1ccccc1)C(=O)N1CCC[C@H]1C(=O)N[C@@H](CCCCN=C(N)N)C(=O)c1nc2ccccc2s1`, the negative logarithm of the IC50 (pIC50) against Serine protease 1 [8] is 6.20; against Prothrombin [3], 5.08.
In the case of `CN[C@H](Cc1ccccc1)C(=O)N1CCC[C@H]1C(=O)N[C@@H](C(=O)c1nc2ccccc2s1)C1CCC(CN)CC1` (stereo not given in full), the pKi is 5.40 on Serine protease 1 [2] and 5.84 on Prothrombin [4]. Further, the IC50 entry against Prothrombin [10] is listed as “Not Active”.
On to `CN[C@H](Cc1ccccc1)C(=O)N1CCC[C@H]1C(=O)N[C@@H](CCCN=C(N)N)C(=O)c1nc2ccccc2s1`, for which the pIC50 was 7.54 against Prothrombin [3] and 7.49 in the assay listed under Homo sapiens. The ED50 with Canis familiaris stood at 0.46 mg/kg; in the assay on Oryctolagus cuniculus it was 0.25 mg/kg. The compound further gave a pKi at Prothrombin [7] of 9.74. For the same compound, the ED25 in the assay filed under Cavia porcellus [15] amounted to 0.9 mg/kg. Besides, the “Delta BP” value in the assay with Cavia porcellus [5] is reported as -85%.
Compound `CN[C@H](Cc1ccccc1)C(=O)N1CCC[C@H]1C(=O)N[C@@H](CCCNC(=N)N)C(=O)c1nccn1C` gave a pKi on Serine protease 1 [2] of 5.24. In addition, the pIC50 was 5.82 against Prothrombin [3] and 6.64 in the assay listed under Homo sapiens. The “Delta BP” value with Cavia porcellus [6] is recorded as -68%.
Regarding `CN[C@H](Cc1ccccc1)C(=O)N1CCC[C@H]1C(=O)N[C@H](CC(=O)c1nc2ccccc2s1)[C@H]1CC[C@H](N)CC1`, the negative-log IC50 (pIC50) on Serine protease 1 [16] is 4.24; at Prothrombin [3] it was less than 4.00.
For `CN[C@H](Cc1ccccc1)C(=O)N1CCC[C@H]1C(=O)N[C@@H](CC(=O)c1nc2ccccc2s1)[C@H]1CC[C@H](N)CC1`, in that order: 4.66 and less than 4.00.
In the case of `CN[C@H](Cc1ccccc1)C(=O)N1CCC[C@H]1C(=O)NC(CCCN=C(N)N)C(=O)c1nc2ccc3ccccc3c2s1` (stereo not given in full), the negative-log Ki (pKi) at Serine protease 1 [2] is 7.82; on Prothrombin [4], 9.24. In addition, the pIC50 on Prothrombin [3] was 7.22. In addition, the “Delta BP” value in the assay on Cavia porcellus [6] was -51%.
Compound `CN[C@H](Cc1ccccc1)C(=O)N1CCC[C@H]1C(=O)N[C@@H](Cc1ccc(C(=N)N)cc1)C(=O)c1nc2ccccc2s1` had a negative logarithm of the IC50 (pIC50) on Serine protease 1 [8] of 6.27. In addition, the pKi at Prothrombin [4] is 5.85.
With `N=C(N)NCCCC(NC(=O)[C@@H]1CCCN1C(=O)C(O)C1c2ccccc2-c2ccccc21)C(=O)c1nc2ccccc2s1` (stereo not given in full), the pKi is 8.70 on Serine protease 1 [2] and 8.51 at Prothrombin [4]. At Prothrombin [3], this compound showed a negative logarithm of the IC50 (pIC50) of 7.02. Also, in the assay on Cavia porcellus [6], the “Delta BP” value is -71%.
In the case of `CN[C@H](Cc1ccccc1)C(=O)N1CCC[C@H]1C(=O)N[C@@](C)(CCCN=C(N)N)C(=O)c1nc2ccccc2s1`, the pKi on Serine protease 1 [2] was 5.22; at Prothrombin [17], 6.37. This compound also showed a pIC50 against Prothrombin [3] of 5.43.
As for `CN[C@H](Cc1ccccc1)C(=O)N1CCC[C@H]1C(=O)NC(CCCN=C(N)N)C(=O)c1nc2ccc(C(=O)OC)cc2s1` (stereo not given in full), the pKi on Serine protease 1 [2] was 7.51. In addition, the ED50 was found to be 0.47 mg/kg in the assay on Canis familiaris and 0.35 mg/kg in the assay on Oryctolagus cuniculus. For the same compound, the pIC50 in the assay filed under Homo sapiens is 7.41. In the assay filed under Cavia porcellus [15], the ED25 came out at 13.4 mg/kg. In the assay on Cavia porcellus [6], the “Delta BP” value is -16%.
As to `N=C(N)NCCCC(NC(=O)[C@@H]1CCCN1C(=O)[C@@H](CC1CCCCC1)NCC(=O)O)C(=O)c1nc2ccccc2s1` (stereo not given in full), the pKi on Serine protease 1 [2] was 7.66; on Prothrombin [4], 9.44. The negative logarithm of the IC50 (pIC50) against Prothrombin [3] is 7.54; in the assay listed under Homo sapiens, 7.80. The “Delta BP” value in the assay with Cavia porcellus [6] is on record as -47%.
Take `CS(=O)(=O)CC[C@H](NS(=O)(=O)Cc1ccccc1)C(=O)N1CCC[C@H]1C(=O)N[C@@H](CCCNC(=N)N)C(=O)c1nc2ccccc2s1`: the pKi was 8.57 on Serine protease 1 [2] and 8.82 at Prothrombin [4]. In addition, the negative logarithm of the IC50 (pIC50) at Prothrombin [3] is 7.02; in the assay listed under Homo sapiens, 7.43. In addition, the “Delta BP” value with Cavia porcellus [6] is reported as -64%.
Turning to `CCS(=O)(=O)N[C@H](Cc1ccccc1)C(=O)N1CCC[C@H]1C(=O)NC(CCCN=C(N)N)C(=O)c1nc2ccccc2s1` (stereo not given in full), the pKi was 7.51 on Serine protease 1 [2], 7.62 on Prothrombin [7] and 7.62 on Prothrombin [4]. Moreover, the negative-log IC50 (pIC50) against Prothrombin [3] was 6.30; in the assay listed under Homo sapiens, 7.34. In addition, the “Delta BP” value with Cavia porcellus [6] is given as -36%.

These data come from ChEMBL document CHEMBL1142732, “In-depth study of tripeptide-based alpha-ketoheterocycles as inhibitors of thrombin. Effective utilization of the S1' subsite and its implications to structure-based drug design” (J Med Chem, 2005).
